Consider three molecules from patent US10047093B2, “Substituted imidazo[1,2-B]pyridazines as protein kinase inhibitors” (Tolero Pharmaceuticals, Inc., priority 2011, dated 2018).

A value given as a limit tells only on which side of the number the result lay.

For data set [1], the system named is MV-4-11 (FLT3-ITD). Description: MV-4-11 mouse xenograft. Format: in vivo. Particulars: MV-4-11 (FLT3-ITD) established xenografts. An excerpt:
(§1) Male and female Nu/Nu mice were purchased from Harlan Sprague Dawley (Indianapolis, Ind.). Female Nu/Nu mice were used for all xenograft evaluations with the exception of the PC-3 xenografts where male Nu/Nu mice were used. Cell lines were expanded in vitro in complete media, and if adherent were harvested by trypsin-EDTA, centrifuged and resuspended in PBS 1:1 with Matrigel (BD Bioscienes). Cells were inoculated subcutaneously in the right hind flank of mice. When tumors reached 100-200 mm^3 by caliper measurement, mice were randomized and dosing of SGI-9481 or vehicle control began and continued every day for 5 days (QDx5) with 2 days off for 18-21 days. Tumor volumes and body weights were determined twice a week, and tumor weights were measured at the completion of the translational xenograft studies.

Data set [2] concerns UM-UC-3. As to the kind of experiment: In vitro viability/proliferation assay, UM-UC-3. The data set is classed as cell-based. Particulars: Homo sapiens, UMUC3; bladder line UM-UC-3. As to the method:
(§2) Adherent or suspension cancer cell lines were seeded at 2000-5000 cells/well in a 96-well plate, or 1000-2000 cells/well in a 384-well plate. Suspension cells were treated with drug the same day as seeding, while adherent cells were incubated overnight at 37° C. in 5% CO2 prior to drug treatment. All cells were treated for 72 hours, then lysed with ATPlite (Perkin Elmer) and measured on an Envision microplate reader. IC50 values were determined using GraphPad Prism software.
(§3) Over 35 cell lines were tested, and the most sensitive cell lines from various indications were selected and verified by multiple EC50 determinations (FIG. 6). […] Anti-proliferative activity using PIM-2 shRNA against FLT3-ITD driven leukemia lines has been observed (Adam (2006) Cancer Res 66:3828-35 data not shown).

Data set [3] concerns hematological cell lines. Description: In vitro viability assay, panel of hematological cell lines. The data set is classed as cell-based. Particulars: most sensitive hematological cell lines. The protocol: as §2, §3
The subject of data set [4] is ML-2 cells (wild-type FLT3). Description: ML-2 mouse xenograft. Format: in vivo. Particulars: ML-2 (wild-type FLT3) xenograft.
Source text: as §1

In data set [5] the test system is UM-UC-3 xenograft tumors. As to the kind of experiment: UM-UC-3 established mouse xenograft. Format: in vivo.
Source text: as §1, with “When tumors reached 100-200 mm^3 by caliper measurement, mice were randomized and dosing of SGI-9481 or vehicle control began and continued every day for 5 days (QDx5) with 2 days off for 18-21 days.” left out

In data set [6] the test system is PC-3 xenograft tumors. As to the kind of experiment: PC-3 established mouse xenograft. Format: in vivo.
Source text: as §1, with “When tumors reached 100-200 mm^3 by caliper measurement, mice were randomized and dosing of SGI-9481 or vehicle control began and continued every day for 5 days (QDx5) with 2 days off for 18-21 days.” left out

The target of data set [7] is Pim-1 kinase (Homo sapiens (Human), UniProt P11309). As to the kind of experiment: Pim-1 kinase inhibition assay (Promega Kinase-Glo). The data set is classed as biochemical. Particulars: read-out: IC50 on Pim1. The source says: One illustrative manner in which Pim-1 kinase activity can be determined is by quantifying the amount of ATP remaining in solution after an in vitro Pim-1 kinase reaction. The Kinase-Glo Assay Kit (Promega, Inc., Madison, Wis.) allows this. The amount of ATP remaining in the solution after the kinase reaction serves as a substrate for the luciferase to catalyze luciferin to oxyluciferin plus one photon of light. Thus, the luminescent signal read by the Luminoskan Ascent Instrument (Thermo Electron Corp., Milford, Mass.) correlates with the amount of ATP present after the kinase reaction and inversely correlates with the amount of kinase activity. […] These assays are set up in duplicate 50 ul volumes in white, flat bottom 96 well plates. […] This solution is incubated at 30 degrees Celsius at 360 rpm for two hours. Following the incubation, 50 ul of Kinase-Glo reagent is added to each well, including all positive and negative control wells, and incubated at room temperature for 15 minutes. […] The IC50 values can then be calculated for each inhibitor tested.
A general note: Kinase-Glo measures the ATP left after a reaction by luminescence.

Setting [8] is: 125 mg/kg, less than with 200 mg/kg.

Chain of Pim-1 kinase (P11309 whole entry): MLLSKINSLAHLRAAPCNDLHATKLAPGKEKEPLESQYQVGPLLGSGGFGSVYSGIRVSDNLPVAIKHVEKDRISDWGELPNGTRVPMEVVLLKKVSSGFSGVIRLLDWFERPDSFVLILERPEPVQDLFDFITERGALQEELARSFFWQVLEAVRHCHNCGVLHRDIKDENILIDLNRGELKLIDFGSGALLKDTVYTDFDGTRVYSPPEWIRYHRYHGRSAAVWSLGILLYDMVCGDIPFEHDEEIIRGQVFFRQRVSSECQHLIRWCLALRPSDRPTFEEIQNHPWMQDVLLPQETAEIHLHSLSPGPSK

On to `CC(C)(O)[C@H]1CC[C@H](Nc2ccc3ncc(-c4cccc(C(F)(F)F)c4)n3n2)CC1` [Compound 8-31], for which, in data set [1], the “tumor growth of established xenografts” value is listed as “induced regressions”. Further, the EC50 in data set [2] and in data set [3] was 1000 to 2000 nM in each case. The tumor growth entry in data set [4] is “significant tumor growth inhibition”. Also, the tumor growth inhibition entry in data set [5] (setting [8]) and in data set [6] (setting [8]) was “significant tumor growth inhibition” in each case. The “body weight and gross adverse toxicity” value in data set [5] (oral dosing of 200 mg/kg) and in data set [6] (oral dosing of 200 mg/kg) was “no significant changes in body weight or gross adverse toxicity” in each case. The “tumor growth measured by volume (caliper) and by final tumor weight” value in data set [5] (oral dosing of 200 mg/kg) and in data set [6] (oral dosing of 200 mg/kg) was “significantly reduced” throughout.
Take `C[C@]1(O)CC[C@H](Nc2ccc3nnc(-c4cccc(OC(F)(F)F)c4)n3c2)CC1` [Compound 8-100, 1-Methyl-4-((3-(3-(trifluoromethoxy)phenyl)-[1,2,4]triazolo[4,3-a]pyridin-6-yl)amino)-trans-cyclohexanol]: the IC50 (commonly the concentration that inhibits the measured activity by half) in data set [7] was found to be 1640 nM.
“4-(((3-(3-(Trifluoromethyl)phenyl)-[1,2,4]triazolo[4,3-a]pyridin-6-yl)amino)methyl)tetrahydro-2H-thiopyran 1,1-dioxide [Compound 8-111]”: the IC50 in data set [7] was over 30000 nM.
